The target in assay [1] is T1, human RORγt (Ligand Binding Domain) (Homo sapiens, UniProt P51449).
T1 construct: purchased Crelux (Planegg, Germany) batch no PC5032-1
T1 sequence (P51449 269-508 limits assumed): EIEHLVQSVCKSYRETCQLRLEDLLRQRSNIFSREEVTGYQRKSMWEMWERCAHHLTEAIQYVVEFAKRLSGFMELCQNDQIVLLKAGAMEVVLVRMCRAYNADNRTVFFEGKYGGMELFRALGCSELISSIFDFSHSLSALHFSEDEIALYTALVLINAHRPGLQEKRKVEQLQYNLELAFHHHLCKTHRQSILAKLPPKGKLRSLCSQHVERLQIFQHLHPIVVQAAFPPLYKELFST
Description: Fluorescence Polarization (FP) Assay. The note with it: 100 nM human RORγt LBD, 25 nM TAMRA probe, values are activity range bounds. In a few lines:
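Binding to the RORγt ligand-binding domain was followed by FP. Displacement of a TAMRA-tagged RORγt ligand tracer (910 g/mol) was measured, with DMSO-only wells as negative control.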

Assay [2] has as its target T2, ligand binding domain of human RORγ (Homo sapiens, UniProt P51449).
T2 construct: host or cells: HEK293t
T2 sequence (P51449 269-508 limits assumed): T1 sequence (P51449 269-508 limits assumed)
Description: RORγ Reporter Assay (Gal4). Format: cell-based. The note with it: for inhibition at 1 µM: HEK-293T, 1 μM test compound, HEK293t RORγ reporter cells, 24 hour, read-out: Gal4 activity range @ 1 μM (% inhibition); for Gal4 activity range @ 0.1 μM (% inhibition): RORγ Reporter Assay (Gal4), HEK293t reporter cells, compound at 0.1 μM, values are activity range bounds. In a few lines: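 HEK293t cells expressing Gal4 DBD–human RORγ LBD hybrid with Gal4-UAS firefly luciferase reporter; compounds at final 1,000 nM and 100 nM (0.1% DMSO), triplicate, medium with 10% charcoal-stripped FBS, 24 h at 37 °C. Luminescence read; percent reduction of RORγ activity calculated versus vehicle-only wells.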

Compound `Cc1ccc(CN(C)c2ncnc(NCc3ccc(CC(N)=O)cc3)c2F)c(C)c1` [Example A138, 2-[4-[[[6-[(2,4-dimethylphenyl)methyl-methyl-amino]-5-fluoro-pyrimidin-4-yl]amino]methyl]phenyl]acetamide] returned an IC50 in assay [1] of less than 500 nM. Also, in assay [2], the inhibition at 1 µM is more than 20% and the “Gal4 activity range @ 0.1 μM (% inhibition)” value was more than 0 % inhibition.
In the same order, the values of `CN(Cc1cccc(-n2cccn2)c1)c1ncnc(NC[C@H]2CC[C@H](NS(=O)(=O)C(F)(F)F)CC2)c1F` [Example A142, 1,1,1-trifluoro-N-[4-[[[5-fluoro-6-[methyl-[(3-pyrazol-1-ylphenyl)methyl]amino]pyrimidin-4-yl]amino]methyl]cyclohexyl] methanesulfonamide] are less than 500 nM, more than 50% and more than 0 % inhibition.
Turning to `CN(Cc1cccc(-n2cccn2)c1)c1ncnc(NCC2CCN(S(C)(=O)=O)CC2)c1F` [Example A143, 5-fluoro-N6-methyl-N4-[(1-methylsulfonyl-4-piperidyl)methyl]-N6-[(3-pyrazol-1-ylphenyl)methyl]pyrimidine-4,6-diamine], the half-maximal inhibitory concentration (IC50) in assay [1] is less than 500 nM. In addition, in assay [2], the inhibition at 1 µM is more than 80% and the “Gal4 activity range @ 0.1 μM (% inhibition)” value is given as more than 20 % inhibition.
In the same order, the values of `CCN(CC1COc2ccccc2O1)c1ncnc(NCc2ccc(CC(N)=O)cc2)c1F` (stereo not shown) [Example A145, 2-[4-[[[6-[2,3-dihydro-1,4-benzodioxin-3-ylmethyl(ethyl)amino]-5-fluoro-pyrimidin-4-yl]amino]methyl]phenyl]acetamide] are less than 500 nM, more than 50% and more than 0 % inhibition.
`CS(=O)(=O)c1ccc(CCNc2ncnc(N(Cc3ccc(C(F)(F)F)cc3)C3CC3)c2F)cc1` [Example A147, N4-cyclopropyl-5-fluoro-N6-[2-(4-methylsulfonylphenyl)ethyl]-N4-[[4-(trifluoromethyl)phenyl]methyl] pyrimidine-4,6-diamine]: the IC50 in assay [1] was less than 500 nM. In assay [2], the inhibition at 1 µM is more than 80% and the “Gal4 activity range @ 0.1 μM (% inhibition)” value is reported as more than 50 % inhibition.
The corresponding values for `CCCn1nc(C)cc1CN(C)c1ncnc(NCC2CCN(S(C)(=O)=O)CC2)c1F` [Example A148, 5-fluoro-N4-methyl-N4-[(5-methyl-2-propyl-pyrazol-3-yl)methyl]-N6-[(1-methylsulfonyl-4-piperidyl)methyl]pyrimidine-4,6-diamine] are less than 500 nM, more than 20% and more than 0 % inhibition.
For the compound `CCCn1nc(C)cc1CN(C)c1ncnc(NCC2CCN(S(=O)(=O)C(F)F)CC2)c1F` [Example A149, N6-[[1-(difluoromethylsulfonyl)-4-piperidyl]methyl]-5-fluoro-N4-methyl-N4-[(5-methyl-2-propyl-pyrazol-3-yl)methyl]pyrimidine-4,6-diamine], in assay [1], the IC50 was less than 500 nM. In addition, the inhibition at 1 µM in assay [2] was more than 20%.
In assay [1], `CCCn1nc(C)cc1CN(C)c1ncnc(NCc2ccc(CC(=O)O)cc2)c1F` [Example A150, 2-[4-[[[5-fluoro-6-[methyl-[(5-methyl-2-propyl-pyrazol-3-yl)methyl]amino]pyrimidin-4-yl]amino]methyl]phenyl]acetic acid] yielded an IC50 of less than 2000 nM. For the same compound, the inhibition at 1 µM in assay [2] was more than 20%.
`CN(C)CCNC(=O)CC1(CNc2ncnc(N(Cc3ccc(C(F)(F)F)cc3)C3CC3)c2F)CCOCC1` [Example A151, 2-[4-[[[6-[cyclopropyl-[[4-(trifluoromethyl)phenyl]methyl]amino]-5-fluoro-pyrimidin-4-yl]amino]methyl]tetrahydropyran-4-yl]-N-(2-dimethylaminoethyl)acetamide] had an IC50 in assay [1] of less than 1000 nM. In assay [2], the inhibition at 1 µM was more than 50% and the “Gal4 activity range @ 0.1 μM (% inhibition)” value is on record as more than 0 % inhibition.
As for `NC(=O)Cc1ccc(CNc2ncnc3c2ccn3Cc2ccc(C(F)(F)F)cc2)cc1` [Example A164, 2-[4-[[[7-[[4-(trifluoromethyl)phenyl]methyl]pyrrolo[2,3-d]pyrimidin-4-yl]amino]methyl]phenyl]acetamide], the half-inhibitory concentration (IC50) in assay [1] was less than 1000 nM. For the same compound, in assay [2], the inhibition at 1 µM is more than 50% and the “Gal4 activity range @ 0.1 μM (% inhibition)” value was more than 20 % inhibition.
Take `CS(=O)(=O)N1CCC(C2(Nc3ncnc(N(Cc4ccc(C(F)(F)F)cc4)C4CC4)c3F)CC2)CC1` [Example A165, N6-cyclopropyl-5-fluoro-N4-[1-(1-methylsulfonyl-4-piperidyl)cyclopropyl]-N6-[[4-(trifluoromethyl)phenyl]methyl] pyrimidine-4,6-diamine]: the IC50 in assay [1] was less than 500 nM. Also, in assay [2], the inhibition at 1 µM is more than 80% and the “Gal4 activity range @ 0.1 μM (% inhibition)” value is given as more than 50 % inhibition.
The corresponding values for `O=C(C1CC1)N1CCC(CNc2ncnc(N(Cc3ccc(C(F)(F)F)cc3)C3CC3)c2F)CC1` [Example A167, cyclopropyl-[4-[[[6-[cyclopropyl-[[4-(trifluoromethyl)phenyl]methyl]amino]-5-fluoro-pyrimidin-4-yl]amino]methyl]-1-piperidyl]methanone] are less than 500 nM, more than 80% and more than 50 % inhibition.
`NC(=O)Cc1ccc(CNc2ncnc(N(Cc3ccc(C(F)(F)F)cc3O)C3CC3)c2F)cc1` [Example A168, 2-[4-[[[6-[cyclopropyl-[[2-hydroxy-4-(trifluoromethyl)phenyl]methyl]amino]-5-fluoro-pyrimidin-4-yl]amino]methyl]phenyl]acetamide] returned an IC50 in assay [1] of less than 500 nM. Moreover, in assay [2], the inhibition at 1 µM was more than 80% and the “Gal4 activity range @ 0.1 μM (% inhibition)” value is more than 50 % inhibition.
In assay [1], `CS(=O)(=O)N1CCC2(CC1)CC2Nc1ncnc(N(Cc2ccc(C(F)(F)F)cc2)C2CC2)c1F` (stereo not shown) [Example A169, N6-cyclopropyl-5-fluoro-N4-(6-methylsulfonyl-6-azaspiro[2.5]octan-2-yl)-N6-[[4-(trifluoromethyl)phenyl]methyl] pyrimidine-4,6-diamine] returned an IC50 of less than 500 nM. In addition, in assay [2], the inhibition at 1 µM is more than 80% and the “Gal4 activity range @ 0.1 μM (% inhibition)” value is recorded as more than 80 % inhibition.
The corresponding values for `NC(=O)Cc1ccc(CNc2ncnc(N(Cc3ccnc(C(F)(F)F)c3)C3CC3)c2F)cc1` [Example A170, 2-[4-[[[6-[cyclopropyl-[[2-(trifluoromethyl)-4-pyridyl]methyl]amino]-5-fluoro-pyrimidin-4-yl]amino]methyl]phenyl]acetamide] are less than 500 nM, more than 50% and more than 20 % inhibition.
The corresponding values for `CS(=O)(=O)N1[C@@H]2CC[C@H]1CC(CNc1ncnc(N(Cc3ccc(C(F)(F)F)cc3)C3CC3)c1F)C2` (stereo partly drawn) [Example A171, N6-cyclopropyl-5-fluoro-N4-[[(1S,5R)-8-methylsulfonyl-8-azabicyclo[3.2.1]octan-3-yl]methyl]-N6-[[4-(trifluoromethyl)phenyl]methyl] pyrimidine-4,6-diamine] are less than 500 nM, more than 80% and more than 80 % inhibition.
In the same order, the values of `CS(=O)(=O)N1CCC2(CC2Nc2ncnc(N(Cc3ccc(C(F)(F)F)cc3)C3CC3)c2F)C1` (stereo not shown) [Example A172, N6-cyclopropyl-5-fluoro-N4-(6-methylsulfonyl-6-azaspiro[2.4]heptan-2-yl)-N6-[[4-(trifluoromethyl)phenyl]methyl] pyrimidine-4,6-diamine] are less than 2000 nM, more than 80% and more than 20 % inhibition.
In turn, `CS(=O)(=O)N1CC2CC2(CNc2ncnc(N(Cc3ccc(C(F)(F)F)cc3)C3CC3)c2F)C1` (stereo not shown) [Example A174, N6-cyclopropyl-5-fluoro-N4-[(3-methylsulfonyl-3-azabicyclo[3.1.0]hexan-5-yl)methyl]-N6-[[4-(trifluoromethyl)phenyl]methyl] pyrimidine-4,6-diamine] returned an IC50 in assay [1] of less than 500 nM. Also, in assay [2], the inhibition at 1 µM was more than 80% and the “Gal4 activity range @ 0.1 μM (% inhibition)” value is listed as more than 20 % inhibition.
`CS(=O)(=O)N1CC2CCC(Nc3ncnc(N(Cc4ccc(C(F)(F)F)cc4)C4CC4)c3F)C2C1` (stereo not shown) [Example A175, N6-cyclopropyl-5-fluoro-N4-(2-methylsulfonyl-3,3a,4,5,6,6a-hexahydro-1H-cyclopenta[c]pyrrol-4-yl)-N6-[[4-(trifluoromethyl)phenyl]methyl] pyrimidine-4,6-diamine] came in with an IC50 in assay [1] of less than 500 nM. In assay [2], the inhibition at 1 µM is more than 80% and the “Gal4 activity range @ 0.1 μM (% inhibition)” value is recorded as more than 50 % inhibition.
As for `NC(=O)Cc1ccc(CNc2ncnc(N(Cc3cccc(C(F)(F)F)n3)C3CC3)c2F)cc1` [Example A176, 2-[4-[[[6-[cyclopropyl-[[6-(trifluoromethyl)-2-pyridyl]methyl]amino]-5-fluoro-pyrimidin-4-yl]amino]methyl]phenyl]acetamide], the half-inhibitory concentration (IC50) in assay [1] is less than 500 nM. Also, in assay [2], the inhibition at 1 µM was more than 50% and the “Gal4 activity range @ 0.1 μM (% inhibition)” value is given as more than 0 % inhibition.

By IC50 is commonly meant the midpoint of a concentration-inhibition curve. Higher therefore signals lower potency. Broadly, the inhibition is the percentage by which the read-out fell short of the control.

(Values after US10683293B2, “Optionally fused heterocyclyl-substituted derivatives of pyrimidine useful for the treatment of inflammatory, metabolic, oncologic and autoimmune diseases” (NUEVOLUTION A/S, priority 2014, dated 2020).)
